Experimental data from patent publication US20120142685A1, “ORGANIC COMPOUNDS” (priority 2007, published 2012).

Target: T1, protein kinase D2 (PKD2) (Homo sapiens, UniProt Q9BZL6)
T1 construct: This assay is performed with full length wild-type enzyme purchase from Invitrogen; purchased Invitrogen
T1 sequence (Q9BZL6 1-878): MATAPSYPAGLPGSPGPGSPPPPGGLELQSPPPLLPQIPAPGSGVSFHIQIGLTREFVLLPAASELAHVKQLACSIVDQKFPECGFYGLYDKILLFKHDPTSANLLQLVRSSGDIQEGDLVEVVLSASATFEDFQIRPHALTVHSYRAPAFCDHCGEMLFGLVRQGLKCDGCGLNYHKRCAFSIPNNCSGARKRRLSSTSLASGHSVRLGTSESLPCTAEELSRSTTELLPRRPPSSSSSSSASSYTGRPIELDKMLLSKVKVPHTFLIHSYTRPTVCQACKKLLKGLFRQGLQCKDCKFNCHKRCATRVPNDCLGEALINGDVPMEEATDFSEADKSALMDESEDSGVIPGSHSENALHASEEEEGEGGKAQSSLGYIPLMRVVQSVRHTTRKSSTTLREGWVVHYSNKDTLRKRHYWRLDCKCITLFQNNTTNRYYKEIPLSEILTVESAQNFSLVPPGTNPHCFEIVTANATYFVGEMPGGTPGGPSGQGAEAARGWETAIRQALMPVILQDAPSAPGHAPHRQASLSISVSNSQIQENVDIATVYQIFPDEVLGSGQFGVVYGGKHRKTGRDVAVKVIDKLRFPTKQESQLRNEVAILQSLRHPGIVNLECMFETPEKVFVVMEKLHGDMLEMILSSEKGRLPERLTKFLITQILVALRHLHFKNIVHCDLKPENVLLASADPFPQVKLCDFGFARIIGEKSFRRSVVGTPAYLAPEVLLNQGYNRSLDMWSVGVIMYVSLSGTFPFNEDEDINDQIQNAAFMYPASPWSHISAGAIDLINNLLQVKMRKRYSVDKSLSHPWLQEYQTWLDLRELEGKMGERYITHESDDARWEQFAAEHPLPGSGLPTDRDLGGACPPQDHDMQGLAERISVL
Assay: PKD2 TR-FRET (LANCE) kinase assay
Assay type: biochemical
Conditions: not given
Source text: The assay to measure protein kinase D2 (PKD2) activity is a time-resolved fluorescence resonance transfer (TR-FRET) assay using PerkinElmer's LANCE™ technology. In this case, a biotinylated syntide-2 peptide is used as the substrate in this reaction. Phosphorylation of the syntide-2 substrate is detected by a specific antibody that recognizes the phosphorylated peptide. A second fluorophore, APC, is conjugated to streptavidin that binds the biotinylated syntide-2 peptide. […] Therefore, when the europium labeled secondary antibody binds on the phosphorylated peptide, it is brought into close contact with the APC and excites this fluorophore.
This assay is performed with full length wild-type enzyme purchase from Invitrogen. The reaction buffer consists of 35 mM Tris-HCl pH7.5, 5 mM MgCl2, 0.02% Tween-20, 20 μM ATP, 1 mM DTT and 0.2 μg/mL PKD2 enzyme. The enzyme reaction is initiated by the addition of 2 μM syntide-2 peptide substrate and the reaction carried out for 50 minutes at room temperature. The reaction is stopped by a stop/detection buffer consisting of 50 mM EDTA, 0.18 mg/mL rabbit polyclonal anti-phospho syntide-2 antibody, 0.5 nM europium labeled anti-rabbit IgG and 10 nM streptavidin conjugated APC. After a one hour incubation with the stop/detection buffer, the reaction is read on an Envision 2100 Reader using a LANCE™ Eu/APC dual protocol. […] IC50 values are calculated using an Activity Base (IDBS) software program.

IC50 | SMILES
0.753 µM | CNc1cc(-c2cc3cnccc3c(NC)n2)ccn1 [Example 2, 1-Methylamino-3-(2-methylaminopyridin-4-yl)-[2,6]-naphthyridine]
0.414 µM | NC(=O)C1CCN(c2nc(-c3ccnc(NC4CCCCC4)c3)cc3cnccc23)CC1 [Example 10, 1-[3-(2-Cyclohexylaminopyridin-4-yl)-[2,6]naphthyridin-1-yl]piperidine-4-carboxylic acid amide]
0.011 µM | O=C(NCCO)C1CCN(c2nc(-c3ccnc(NC4CCOCC4)c3)cc3cnccc23)CC1 [Example 16, 1-{3-[2-(Tetrahydropyran-4-ylamino)pyridin-4-yl]-[2,6]naphthyridin-1-yl}piperidine-4-carboxylic acid (2-hydroxyethyl)amide]

SMILES | IC50
CN1CCN(c2nc(-c3ccnc(NC4CCCCC4)c3)cc3cnccc23)CC1 [Example 13, Cyclohexyl-{4-[1-(4-methylpiperazin-1-yl)-[2,6]naphthyridin-3-yl]pyridin-2-yl}amine] | 0.014 µM

Same assay, conditions: full length wild-type enzyme, 20 μM ATP; read-out: Inhibitory Activity PKD2

SMILES | IC50
CNc1cc(-c2cc3cnccc3c(NCCCO)n2)ccn1 [Example 1] | 0.903 µM
c1cc2c(N3CCNCC3)nc(-c3ccnc(NC4CCCCC4)c3)cc2cn1 [Example 3, Cyclohexyl-[4-(1-piperazin-1-yl-[2,6]naphthyridin-3-yl)pyridin-2-yl]amine] | 0.0003 µM
c1ccc(Nc2cc(-c3cc4cnccc4c(N4CCNCC4)n3)ccn2)cc1 [Example 4, Phenyl-[4-(1-piperazin-1-yl-[2,6]naphthyridin-3-yl)pyridin-2-yl]amine] | 0.04 µM
CC(C)Nc1cc(-c2cc3cnccc3c(NCCO)n2)ccn1 [Example 6, 2-[3-(2-Isopropylaminopyridin-4-yl)-[2,6]naphthyridin-1-ylamino]ethanol] | 0.497 µM
COc1cccc(Nc2cc(-c3cc4cnccc4c(NCCO)n3)ccn2)c1 [Example 7] | 0.195 µM
CN(C)CCNc1nc(-c2ccnc(NC3CCCCC3)c2)cc2cnccc12 [Example 8, N-[3-(2-Cyclohexylaminopyridin-4-yl)-[2,6]naphthyridin-1-yl]-N′,N′-dimethylethane-1,2-diamine] | 0.259 µM
CC(=O)N1CCN(c2nc(-c3ccnc(NC4CCCCC4)c3)cc3cnccc23)CC1 [Example 11, 1-{4-[3-(2-Cyclohexylaminopyridin-4-yl)-[2,6]naphthyridin-1-yl]piperazin-1-yl}ethanone] | 0.137 µM
c1cc2c(NC3CCNC3)nc(-c3ccnc(NC4CCCCC4)c3)cc2cn1 (stereo not drawn) [Example 14, [3-(2-Cyclohexylaminopyridin-4-yl)-[2,6]naphthyridin-1-yl]pyrrolidin-3-ylamine] | 0.006 µM
c1cc2c(NC3CCCNC3)nc(-c3ccnc(NC4CCCCC4)c3)cc2cn1 (stereo not drawn) [Example 15, [3-(2-Cyclohexylaminopyridin-4-yl)-[2,6]naphthyridin-1-yl]piperidin-3-ylamine] | 0.102 µM
O=C(NC1CC1)C1CCN(c2nc(-c3ccnc(NC4CCOCC4)c3)cc3cnccc23)CC1 [Example 17, 1-{3-[2-(Tetrahydropyran-4-ylamino)pyridin-4-yl]-[2,6]naphthyridin-1-yl}piperidine-4-carboxylic acid cyclopropylamide] | 0.014 µM
CCNC(=O)N1CCN(c2nc(-c3ccnc(Nc4ccn(C)n4)c3)cc3cnccc23)CC1 [Example 18, 4-{3-[2-(1-Methyl-1H-pyrazol-3-ylamino)pyridin-4-yl]-[2,6]naphthyridin-1-yl}piperazine-1-carboxylic acid ethylamide] | 0.127 µM
Cn1ccc(Nc2cc(-c3cc4cnccc4c(N4CCC(C(N)=O)CC4)n3)ccn2)n1 [Example 19, 1-{3-[2-(1-Methyl-1H-pyrazol-3-ylamino)pyridin-4-yl]-[2,6]naphthyridin-1-yl}piperidine-4-carboxylic acid amide] | 0.002 µM

Now from value to molecule:

IC50 | SMILES
1.37 µM | OCCNc1nc(-c2ccnc(NC3CCCCC3)c2)cc2cnccc12 [Example 5, 2-[3-(2-Cyclohexylaminopyridin-4-yl)-[2,6]naphthyridin-1-ylamino]ethanol]
0.169 µM | CN(C)CCNc1nc(-c2ccnc(Nc3ccccc3)c2)cc2cnccc12 [Example 9, N,N-Dimethyl-N′-[3-(2-phenylaminopyridin-4-yl)-[2,6]naphthyridin-1-yl]-ethane-1,2-diamine]
0.063 µM | CN(C)CC1CCN(c2nc(-c3ccnc(NC4CCCCC4)c3)cc3cnccc23)CC1 [Example 12, Cyclohexyl-{4-[1-(4-dimethylaminomethylpiperidin-1-yl)-[2,6]naphthyridin-3-yl]pyridin-2-yl}amine]
0.059 µM | Cn1ccc(Nc2cc(-c3cc4cnccc4c(N4CCC5(CCNC5=O)CC4)n3)ccn2)n1 [Example 20, 8-{3-[2-(1-Methyl-1H-pyrazol-3-ylamino)pyridin-4-yl]-[2,6]naphthyridin-1-yl}-2,8-diaza-spiro[4.5]decan-1-one]
0.12 µM | COCCNc1cc(-c2cc3cnccc3c(N3CCNCC3)n2)ccn1 [Example 21, (2-Methoxyethyl)-[4-(1-piperazin-1-yl-[2,6]naphthyridin-3-yl)-pyridin-2-yl]amine]
